For 30 compounds, Ki and IC50 results are on record in US9481674B1, “Dihydropyrrolopyridine inhibitors of ROR-gamma” (Vitae Pharmaceuticals, Inc., priority 2016, dated 2016).

What is called Ki is a measure of affinity in units of concentration, obtained from inhibition or displacement. The IC50 is the point on the concentration scale where inhibition reaches its midpoint.

The target in test [1] is T1, recombinant RORγ Ligand Binding Domain (LBD) protein (Homo sapiens, UniProt P51449).
T1 construct: 6×His; GST
T1 sequence (P51449 269-508 limits assumed): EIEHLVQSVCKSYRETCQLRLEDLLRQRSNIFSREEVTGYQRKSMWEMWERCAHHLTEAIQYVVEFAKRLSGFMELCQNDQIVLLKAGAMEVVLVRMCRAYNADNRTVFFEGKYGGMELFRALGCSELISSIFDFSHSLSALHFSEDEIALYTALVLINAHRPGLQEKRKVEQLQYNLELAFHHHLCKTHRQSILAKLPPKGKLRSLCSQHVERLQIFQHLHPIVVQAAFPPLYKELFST
Nature of the test: Radio-Ligand RORγ Binding Assay (Assay 1). The conditions noted are these: cell-free competition with 25-hydroxy[26,27-3H]-cholesterol; read-out: RORγ Binding Ki Range* (nM) (Assay 1). The protocol:
Radio-Ligand RORγ Binding Assay (Assay 1)
The plate was shaken at 700 rpm for 20 min and incubated for 10 min at rt, after which 40 μL of poly-Lys YSi SPA beads (PerkinElmer, Cat. # RPNQ0010) were added to achieve 50 μg of the beads per well. The plate was incubated on an orbital shaker for 20 min and then for 10 min without agitation at rt. SPA signal for tritium beta radiation was registered on PerkinElmer Microbeta plate reader.

The next test has as its system IL-17A production. Nature of the test: Human Whole Blood Assay (Assay 3). In kind it is cell-based. The following applies: IL-17A, 50% blood/media, CytoStim, 48 h, read-out: 50% Human Whole Blood Assay IC50, nM* (Assay 3). The protocol:
Human Whole Blood Assay (Assay 3)
Compounds of the invention were tested in the human whole blood assay to measure their effects on IL-17A production as determined by cytokine secretion into 50% blood/media supernatant. Mixtures of sodium heparinized whole blood (isolated from healthy human donors) and the T cell activator CytoStim, in the presence or absence of compound, were plated in sterilized, tissue culture-treated 24-well plates. Specifically, the mixtures in each well were as follows: (1) 500 μL of whole blood, (2) 250 μL of compound diluted into RPMI-1640 media containing 10% HyClone™ FCS (Thermo Fisher Scientific, Waltham, Mass.), Gibco® Pen/Strep and Gibco® NEAA (Life Technologies, Grand Island, N.Y.), and (3) 250 μL of CytoStim (Miltenyi Biotech, Germany) diluted to a final concentration of 10 μL/mL in complete cell culture medium.
IL-17A cytokine expression was determined using 25 μL of the transferred supernatant diluted with 25 μL of Diluent 43 from the Human IL-17A V-PLEX™ kit (cat. # K151RFD-4, Meso Scale Discovery, Rockville, Md.). The assay was performed according to the manufacturer's instructions using included reagents. The IL-17A V-PLEX™ plates were read using the Meso Scale Discovery Imager (Model 1200).

Test [2] deals with T2, full-length RORγt in Jurkat cells (Homo sapiens, UniProt P51449).
T2 sequence (P51449 1-497 isoform P51449-2): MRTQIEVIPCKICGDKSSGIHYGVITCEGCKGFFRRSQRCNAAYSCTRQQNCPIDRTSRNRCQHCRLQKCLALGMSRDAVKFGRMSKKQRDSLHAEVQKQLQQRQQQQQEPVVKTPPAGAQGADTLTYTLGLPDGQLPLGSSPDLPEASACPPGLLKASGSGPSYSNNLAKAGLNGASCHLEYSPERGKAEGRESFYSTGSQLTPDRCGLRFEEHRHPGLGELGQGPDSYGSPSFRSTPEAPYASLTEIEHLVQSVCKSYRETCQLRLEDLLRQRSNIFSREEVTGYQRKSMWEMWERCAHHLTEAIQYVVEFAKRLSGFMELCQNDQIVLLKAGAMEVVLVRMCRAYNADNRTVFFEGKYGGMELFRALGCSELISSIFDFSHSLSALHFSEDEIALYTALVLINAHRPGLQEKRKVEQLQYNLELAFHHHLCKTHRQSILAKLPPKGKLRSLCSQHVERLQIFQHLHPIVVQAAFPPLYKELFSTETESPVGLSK
Description: ROR ? t 5×RORE Assay in Jurkat Cells (Assay 2)
Compounds of the present invention were tested for RORγ inverse agonist activity in a cell-based, transcriptional activity assay. […] Luciferase activity in the conditioned supernatants was determined with NanoGlo® assay reagents (Promega, Cat.# N1130).

Bounds are passed on as bounds.

On to `CCS(=O)(=O)c1ccc([C@H](CO)NC(=O)c2cnc3c(c2)CN(C[C@@H]2CC[C@@H](C(F)(F)F)OC2)[C@H]3C(C)C)nc1` (single isomer, unassigned) [Compound 1], for which the inhibitory constant (Ki) in test [1] is < 100 nM. Moreover, the IC50 in the test with IL-17A production is < 100 nM.
In the case of `CCS(=O)(=O)c1ccc([C@H](CO)NC(=O)c2cnc3c(c2)CN(C[C@@H]2CC[C@@H](C(F)(F)F)OC2)[C@H]3C(C)C)cc1` (single isomer, unassigned) [Compound 2], the Ki in test [1] was < 100 nM. In addition, the IC50 with IL-17A production was < 100 nM.
In the case of `CCS(=O)(=O)c1ccc([C@H](CO)NC(=O)c2cnc3c(c2)CN(C[C@H]2CC[C@H](C(F)(F)F)OC2)[C@H]3C(C)C)cc1` (single isomer, unassigned) [Compound 5], the Ki in test [1] was < 100 nM. Also, the IC50 (with IL-17A production; in test [2]) was < 100 nM each time.
Consider `CC[C@H]1c2ncc(C(=O)N[C@@H](CO)c3ccc(S(=O)(=O)CC)cc3)cc2CN1C[C@H]1CC[C@H](C(F)(F)F)OC1` (single isomer, unassigned) [Compound 10], for which, in test [1], the Ki was < 100 nM. For the same compound, the IC50 with IL-17A production is < 100 nM.
Turning to `CC[C@H]1c2ncc(C(=O)N[C@@H](CO)c3ccc(S(=O)(=O)CC)cc3)cc2CN1C[C@@H]1CC[C@@H](C(F)(F)F)OC1` (single isomer, unassigned) [Compound 11], the Ki in test [1] was < 100 nM.
Take `CCS(=O)(=O)c1ccc([C@H](CO)NC(=O)c2cnc3c(c2)CN(C[C@@H]2CC[C@@H](C(F)(F)F)CO2)[C@H]3C(C)C)cc1` (single isomer, unassigned) [Compound 14]: the Ki in test [1] was < 100 nM. Further, in the test with IL-17A production, the IC50 was < 100 nM.
Take `CCS(=O)(=O)c1ccc([C@H](CO)NC(=O)c2cnc3c(c2)CN(C[C@H]2CC[C@H](C(F)(F)F)CO2)[C@H]3C(C)C)cc1` (single isomer, unassigned) [Compound 15]: the Ki in test [1] is < 100 nM.
Still for that read-out and setting: then `CCS(=O)(=O)c1ccc([C@H](CO)NC(=O)c2cnc3c(c2)CN(C[C@@H]2CC[C@H](C(F)(F)F)CO2)[C@H]3C(C)C)cc1` (single isomer, unassigned) [Compound 18], with < 100 nM; and `CCS(=O)(=O)c1ccc([C@H](CO)NC(=O)c2cnc3c(c2)CN(C[C@H]2CC[C@@H](C(F)(F)F)CO2)[C@H]3C(C)C)cc1` (single isomer, unassigned) [Compound 21], with < 100 nM.
For `CCS(=O)(=O)c1ccc([C@H](NC(=O)c2cnc3c(c2)CN(C[C@H]2CC[C@H](C(F)(F)F)CC2)[C@H]3C(C)C)[C@H](C)O)cc1` (single isomer, unassigned) [Compound 39], the Ki in test [1] is < 100 nM. Also, in the test on IL-17A production, the IC50 lay within 100 to 200 nM.
The matching figures for `CCS(=O)(=O)c1ccc([C@@H](NC(=O)c2cnc3c(c2)CN(C[C@H]2CC[C@H](C(F)(F)F)CC2)[C@H]3C(C)C)[C@@H](C)O)cc1` (single isomer, unassigned) [Compound 42]: < 100 nM and > 200 nM.
For `CCS(=O)(=O)c1ccc(C(C)(CO)NC(=O)c2cnc3c(c2)CN(C[C@H]2CC[C@H](C(F)(F)F)CC2)[C@H]3C(C)C)cc1` (stereo partly shown) [Compound 7], in test [1], the Ki was < 100 nM. The IC50 in test [2] was in the range of 100 to 1000 nM.
On the same counts, the results for `CC(C)[C@H]1c2ncc(C(=O)N[C@@H](CO)c3ccc(S(C)(=O)=O)cc3)cc2CN1C[C@H]1CC[C@@H](C(F)(F)F)CC1` [Compound 8] are < 100 nM and > 1000 nM.
Turning to `CCS(=O)(=O)c1ccc(C(C)(CO)NC(=O)c2cnc3c(c2)CN(C[C@H]2CC[C@H](C(F)(F)F)CC2)[C@@H]3C(C)C)cc1` (stereo partly shown) [Compound 9], in test [1], the Ki was 100 to 1000 nM.
In the case of `CCS(=O)(=O)c1ccc([C@H](CO)NC(=O)c2cnc3c(c2)CN(CC(F)(F)F)[C@@H]3Cc2ccccc2)cc1` [Compound 19], the Ki in test [1] was < 100 nM. The compound further came in with an IC50 in test [2] of 100 to 1000 nM.
On the same counts, the results for `CCS(=O)(=O)c1ccc([C@H](CO)NC(=O)c2cnc3c(c2)CN(CC(F)(F)F)[C@H]3Cc2ccccc2)cc1` [Compound 22] are < 100 nM and < 100 nM.
The matching figures for `CCS(=O)(=O)c1ccc([C@H](CO)NC(=O)c2cnc3c(c2)CN(C[C@H]2CC[C@H](C(F)(F)F)CC2)C3C(F)(F)F)cc1` (stereo partly shown) [Compound 23]: < 100 nM and < 100 nM.
`CCS(=O)(=O)c1ccc([C@H](CO)NC(=O)c2cnc3c(c2)CN(C[C@H]2CC[C@H](C(F)(F)F)CC2)[C@H]3C)cc1` [Compound 26]: in test [1], the Ki is < 100 nM. For the same compound, in test [2], the IC50 was in the range of 100 to 1000 nM.
On to `CCS(=O)(=O)c1ccc([C@H](CO)NC(=O)c2cnc3c(c2)CN(C[C@H]2CC[C@H](C(F)(F)F)CC2)[C@H]3CC2CCOCC2)cc1` [Compound 27], for which the Ki in test [1] is < 100 nM. Further, the IC50 in test [2] was < 100 nM.
As for `CCS(=O)(=O)c1ccc([C@H](CO)NC(=O)c2cnc3c(c2)CN(C[C@H]2CC[C@H](C(F)(F)F)CC2)[C@@H]3C)cc1` [Compound 28], in test [1], the inhibitory constant (Ki) was > 1000 nM.
Regarding `CCS(=O)(=O)c1ccc([C@H](CO)NC(=O)c2cnc3c(c2)CN(C[C@H]2CC[C@H](C(F)(F)F)CC2)[C@H]3C2CCOCC2)cc1` [Compound 31], in test [1], the Ki was < 100 nM. In addition, the IC50 in test [2] was < 100 nM.
In the case of `CCS(=O)(=O)c1ccc([C@H](CO)NC(=O)c2cnc3c(c2)CN(C)[C@H]3Cc2ccccc2)cc1` [Compound 35], the Ki in test [1] was 100 to 1000 nM.
Regarding `CCS(=O)(=O)c1ccc([C@H](CO)NC(=O)c2cnc3c(c2)CN(C[C@H]2CC[C@H](C(F)(F)F)CC2)[C@H]3Cc2ccccc2)cc1` [Compound 37], in test [1], the Ki was < 100 nM. For the same compound, in test [2], the IC50 was < 100 nM.
As to `CCS(=O)(=O)c1ccc([C@H](CO)NC(=O)c2cnc3c(c2)CN(C[C@H]2CC[C@H](C(F)(F)F)CC2)[C@@H]3Cc2ccccc2)cc1` [Compound 40], the Ki in test [1] is 100 to 1000 nM.
In the case of `CC[C@H]1c2ncc(C(=O)N[C@@H](CO)c3ccc(S(=O)(=O)CC)cc3)cc2CN1C[C@H]1CC[C@H](C(F)(F)F)CC1` [Compound 41, (S)-7-ethyl-N—((R)-1-(4-(ethylsulfonyl)phenyl)-2-hydroxyethyl)-6-((trans-4-(trifluoromethyl)cyclohexyl)methyl)-6,7-dihydro-5H-pyrrolo[3,4-b]pyridine-3-carboxamide], in the test with IL-17A production, the concentration for half-maximal inhibition (IC50) is < 100 nM.
For `CCO[C@H]1CC[C@H](CN2Cc3cc(C(=O)N[C@@H](CO)c4ccc(S(=O)(=O)CC)cc4)cnc3[C@@H]2C(C)C)CC1` [Compound 43], in test [1], the Ki was < 100 nM. The IC50 in test [2] is < 100 nM.
In the case of `CCS(=O)(=O)c1ccc([C@@H](CO)NC(=O)c2cnc3c(c2)CN(C[C@H]2CC[C@H](C(F)(F)F)CC2)[C@H]3C(C)C)nc1` [Compound 44], in the test on IL-17A production, the IC50 was > 200 nM.
Turning to `CCS(=O)(=O)c1ccc([C@H](CO)NC(=O)c2cnc3c(c2)CN(C[C@H]2CC[C@H](C(F)(F)F)CC2)[C@H]3C(C)C)nc1` [Compound 45], in the test with IL-17A production, the IC50 is > 200 nM.
Consider `CCS(=O)(=O)c1ccc([C@H](CO)NC(=O)c2cnc3c(c2)CN(C[C@H]2CC[C@H](C(F)(F)F)CC2)[C@H]3C(C)C)cc1` [Compound 46, (S)—N—((R)-1-(4-(ethylsulfonyl)phenyl)-2-hydroxyethyl)-7-isopropyl-6-((trans-4-(trifluoromethyl)cyclohexyl)methyl)-6,7-dihydro-5H-pyrrolo[3,4-b]pyridine-3-carboxamide], for which the Ki in test [1] is < 100 nM. Besides, the IC50 (in the test with IL-17A production; in test [2]) was < 100 nM each time.
In the case of `CCS(=O)(=O)c1ccc([C@@H](CO)NC(=O)c2cnc3c(c2)CN(C[C@H]2CC[C@H](C(F)(F)F)CC2)[C@H]3C(C)C)cc1` [Compound 47], in test [1], the Ki is < 100 nM. In addition, the IC50 is > 200 nM in the test with IL-17A production and < 100 nM in test [2].
